The text below walks through data of patent US20250230193A1, “CYCLIC COMPOUND HAVING SELECTIVE KRAS INHIBITORY EFFECT ON HRAS AND NRAS” (CHUGAI SEIYAKU KABUSHIKI KAISHA, priority 2022, published 2025).

SMILES strings stand for the structures.

Experiment [1] concerns the target GDP-bound NRAS wild-type protein (Homo sapiens, UniProt P01111). In words: Binding to NRAS by surface plasmon resonance (SPR), Single Cycle Kinetics. Conditions: KD ratio NRAS/KRAS, SPR.
Experiment [2] addresses GDP-bound HRAS wild-type protein (Homo sapiens, UniProt P01112). As to the kind of experiment: Binding to HRAS by surface plasmon resonance (SPR), Single Cycle Kinetics. Conditions: KD ratio HRAS/KRAS, SPR.

GDP-bound HRAS wild-type protein, sequence (P01112 whole entry): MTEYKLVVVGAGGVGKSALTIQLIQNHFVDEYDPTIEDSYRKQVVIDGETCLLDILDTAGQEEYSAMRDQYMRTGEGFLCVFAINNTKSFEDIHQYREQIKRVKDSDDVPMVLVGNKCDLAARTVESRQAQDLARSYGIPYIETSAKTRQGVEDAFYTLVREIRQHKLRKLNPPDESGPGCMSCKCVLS
GDP-bound NRAS wild-type protein, sequence (P01111 whole entry): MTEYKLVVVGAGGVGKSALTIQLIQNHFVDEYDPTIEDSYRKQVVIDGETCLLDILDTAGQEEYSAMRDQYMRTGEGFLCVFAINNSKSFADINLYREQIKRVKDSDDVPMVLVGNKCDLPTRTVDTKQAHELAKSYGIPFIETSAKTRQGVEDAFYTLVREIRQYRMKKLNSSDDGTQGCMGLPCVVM

For the compound `CC[C@H](C)[C@@H]1NC(=O)[C@H](CC(C)C)N(C)C(=O)C[C@@H](C(=O)N2CCOCC2)N(C)C(=O)[C@H](C2CCCC2)N(C)C(=O)C2(COC2)NC(=O)[C@@H]2CCCN2C(=O)[C@H](CCc2cc(F)c(C(F)(F)F)c(F)c2)NC(=O)CN(C)C(=O)[C@H](Cc2ccc(C(F)(F)F)cc2)N2CCCCC[C@@H](C2=O)N(C)C(=O)CN(C)C1=O` [PP0501], the “NRAS/KRAS (ratio of KD value with respect to GDP-bound NRAS wild-type protein to KD value with respect to KRAS)” value in experiment [1] was “B (a compound having 3 or more and less than 10 is denoted as B)”. For the same compound, the “HRAS/KRAS (ratio of KD value with respect to GDP-bound HRAS wild-type protein to KD value with respect to KRAS)” value in experiment [2] is “B (a compound having 3 or more and less than 10 is denoted as B)”.

Turning to `CC[C@H](C)[C@@H]1NC(=O)[C@H](CC(C)C)N(C)C(=O)C[C@@H](C(=O)N2CCOCC2)N(C)C(=O)[C@H](C2CCCC2)N(C)C(=O)C2(CCOCC2)NC(=O)[C@@H]2CCCN2C(=O)[C@H](CCc2cc(F)c(C(F)(F)F)c(F)c2)NC(=O)CN(C)C(=O)[C@H](Cc2ccc(C(F)(F)F)cc2)N2CCCCC[C@@H](C2=O)N(C)C(=O)CN(C)C1=O` [PP0502], the “NRAS/KRAS (ratio of KD value with respect to GDP-bound NRAS wild-type protein to KD value with respect to KRAS)” value in experiment [1] was “A (a compound having 10 or more and less than 20 is denoted as A)”. In experiment [2], the “HRAS/KRAS (ratio of KD value with respect to GDP-bound HRAS wild-type protein to KD value with respect to KRAS)” value is “B (a compound having 3 or more and less than 10 is denoted as B)”.

Turning to `CC[C@H](C)[C@@H]1NC(=O)[C@H](CC(C)C)N(C)C(=O)C[C@@H](C(=O)N2CCOCC2)N(C)C(=O)[C@H](C2CCCC2)N(C)C(=O)C(C)(C)NC(=O)[C@@H]2CCCN2C(=O)[C@H](CCc2cc(F)c(C(F)(F)F)c(F)c2)NC(=O)CN(C)C(=O)[C@H](Cc2ccc(C(F)(F)F)cc2)N2CCCCC[C@@H](C2=O)N(C)C(=O)CN(C)C1=O` [PP0503], the “NRAS/KRAS (ratio of KD value with respect to GDP-bound NRAS wild-type protein to KD value with respect to KRAS)” value in experiment [1] was “A (a compound having 10 or more and less than 20 is denoted as A)”. For the same compound, the “HRAS/KRAS (ratio of KD value with respect to GDP-bound HRAS wild-type protein to KD value with respect to KRAS)” value in experiment [2] is “B (a compound having 3 or more and less than 10 is denoted as B)”.

As for `CC[C@H](C)[C@@H]1NC(=O)[C@H](CC(C)C)N(C)C(=O)C[C@@H](C(=O)N2CCOCC2)N(C)C(=O)[C@H](C2CCC2)N(C)C(=O)C2(CCCC2)NC(=O)[C@@H]2CCCN2C(=O)[C@H](CCc2cc(F)c(C(F)(F)F)c(F)c2)NC(=O)CN(C)C(=O)[C@H](Cc2ccc(C(F)(F)F)cc2)N2CCCCC[C@@H](C2=O)N(C)C(=O)CN(C)C1=O` [PP0504], the “NRAS/KRAS (ratio of KD value with respect to GDP-bound NRAS wild-type protein to KD value with respect to KRAS)” value in experiment [1] is “B (a compound having 3 or more and less than 10 is denoted as B)”. In experiment [2], the “HRAS/KRAS (ratio of KD value with respect to GDP-bound HRAS wild-type protein to KD value with respect to KRAS)” value is “B (a compound having 3 or more and less than 10 is denoted as B)”.

On to `CC[C@H](C)[C@@H]1NC(=O)[C@H](CC(C)C)N(C)C(=O)C[C@@H](C(=O)N2CCOCC2)N(C)C(=O)[C@H](C2CCCCC2)N(C)C(=O)C2(CCCC2)NC(=O)[C@@H]2CCCN2C(=O)[C@H](CCc2cc(F)c(C(F)(F)F)c(F)c2)NC(=O)CN(C)C(=O)[C@H](Cc2ccc(C(F)(F)F)cc2)N2CCCCC[C@@H](C2=O)N(C)C(=O)CN(C)C1=O` [PP0505], for which, in experiment [1], the “NRAS/KRAS (ratio of KD value with respect to GDP-bound NRAS wild-type protein to KD value with respect to KRAS)” value was “B (a compound having 3 or more and less than 10 is denoted as B)”. For the same compound, the “HRAS/KRAS (ratio of KD value with respect to GDP-bound HRAS wild-type protein to KD value with respect to KRAS)” value in experiment [2] was “B (a compound having 3 or more and less than 10 is denoted as B)”.

Regarding `CC[C@H](C)[C@@H]1NC(=O)[C@H](CC(C)C)N(C)C(=O)C[C@@H](C(=O)N2CCOCC2)N(C)C(=O)[C@H](CC(F)(F)F)N(C)C(=O)C2(CCCC2)NC(=O)[C@@H]2CCCN2C(=O)[C@H](CCc2cc(F)c(C(F)(F)F)c(F)c2)NC(=O)CN(C)C(=O)[C@H](Cc2ccc(C(F)(F)F)cc2)N2CCCCC[C@@H](C2=O)N(C)C(=O)CN(C)C1=O` [PP0506], the “NRAS/KRAS (ratio of KD value with respect to GDP-bound NRAS wild-type protein to KD value with respect to KRAS)” value in experiment [1] is “B (a compound having 3 or more and less than 10 is denoted as B)”. Further, the “HRAS/KRAS (ratio of KD value with respect to GDP-bound HRAS wild-type protein to KD value with respect to KRAS)” value in experiment [2] was “B (a compound having 3 or more and less than 10 is denoted as B)”.

As for `CC[C@H](C)[C@@H]1NC(=O)[C@H](CC(C)C)N(C)C(=O)C[C@@H](C(=O)N(C)C)N(C)C(=O)[C@H](C2CCCC2)N(C)C(=O)C2(CCCC2)NC(=O)[C@@H]2CCCN2C(=O)[C@H](CCc2cc(F)c(C(F)(F)F)c(F)c2)NC(=O)CN(C)C(=O)[C@H](Cc2ccc(C(F)(F)F)cc2)N2CCCCC[C@@H](C2=O)N(C)C(=O)CN(C)C1=O` [PP0507], in experiment [1], the “NRAS/KRAS (ratio of KD value with respect to GDP-bound NRAS wild-type protein to KD value with respect to KRAS)” value was “B (a compound having 3 or more and less than 10 is denoted as B)”. Besides, the “HRAS/KRAS (ratio of KD value with respect to GDP-bound HRAS wild-type protein to KD value with respect to KRAS)” value in experiment [2] was “B (a compound having 3 or more and less than 10 is denoted as B)”.

Consider `CC[C@H](C)[C@@H]1NC(=O)[C@H](CC(C)C)N(C)C(=O)C[C@@H](C(=O)N2CCCC2)N(C)C(=O)[C@H](C2CCCC2)N(C)C(=O)C2(CCCC2)NC(=O)[C@@H]2CCCN2C(=O)[C@H](CCc2cc(F)c(C(F)(F)F)c(F)c2)NC(=O)CN(C)C(=O)[C@H](Cc2ccc(C(F)(F)F)cc2)N2CCCCC[C@@H](C2=O)N(C)C(=O)CN(C)C1=O` [PP0509], for which the “NRAS/KRAS (ratio of KD value with respect to GDP-bound NRAS wild-type protein to KD value with respect to KRAS)” value in experiment [1] was “B (a compound having 3 or more and less than 10 is denoted as B)”. Further, in experiment [2], the “HRAS/KRAS (ratio of KD value with respect to GDP-bound HRAS wild-type protein to KD value with respect to KRAS)” value was “B (a compound having 3 or more and less than 10 is denoted as B)”.

In the case of `CC[C@H](C)[C@@H]1NC(=O)[C@H](CC(C)C)N(C)C(=O)C[C@@H](C(=O)N2CCCCC2)N(C)C(=O)[C@H](C2CCCC2)N(C)C(=O)C2(CCCC2)NC(=O)[C@@H]2CCCN2C(=O)[C@H](CCc2cc(F)c(C(F)(F)F)c(F)c2)NC(=O)CN(C)C(=O)[C@H](Cc2ccc(C(F)(F)F)cc2)N2CCCCC[C@@H](C2=O)N(C)C(=O)CN(C)C1=O` [PP0510], in experiment [1], the “NRAS/KRAS (ratio of KD value with respect to GDP-bound NRAS wild-type protein to KD value with respect to KRAS)” value was “B (a compound having 3 or more and less than 10 is denoted as B)”. Further, the “HRAS/KRAS (ratio of KD value with respect to GDP-bound HRAS wild-type protein to KD value with respect to KRAS)” value in experiment [2] is “B (a compound having 3 or more and less than 10 is denoted as B)”.

With `CC[C@H](C)[C@@H]1NC(=O)[C@H](CC(C)C)N(C)C(=O)C[C@@H](C(=O)N2C3CCC2COC3)N(C)C(=O)[C@H](C2CCCC2)N(C)C(=O)C2(CCCC2)NC(=O)[C@@H]2CCCN2C(=O)[C@H](CCc2cc(F)c(C(F)(F)F)c(F)c2)NC(=O)CN(C)C(=O)[C@H](Cc2ccc(C(F)(F)F)cc2)N2CCCCC[C@@H](C2=O)N(C)C(=O)CN(C)C1=O` [PP0511], the “NRAS/KRAS (ratio of KD value with respect to GDP-bound NRAS wild-type protein to KD value with respect to KRAS)” value in experiment [1] is “A (a compound having 10 or more and less than 20 is denoted as A)”. In addition, in experiment [2], the “HRAS/KRAS (ratio of KD value with respect to GDP-bound HRAS wild-type protein to KD value with respect to KRAS)” value is “B (a compound having 3 or more and less than 10 is denoted as B)”.

`CC[C@H](C)[C@@H]1NC(=O)[C@H](CC(C)C)N(C)C(=O)C[C@@H](C(=O)N(C)C)N(C)C(=O)[C@H](C2CCCC2)N(C)C(=O)C2(CCC2)NC(=O)[C@@H]2CCCN2C(=O)[C@H](CCc2cc(F)c(C(F)(F)F)c(F)c2)NC(=O)CN(C)C(=O)[C@H](Cc2ccc(C(F)(F)F)cc2)N2CCCCC[C@@H](C2=O)N(C)C(=O)CN(C)C1=O` [PP0512]: in experiment [1], the “NRAS/KRAS (ratio of KD value with respect to GDP-bound NRAS wild-type protein to KD value with respect to KRAS)” value was “B (a compound having 3 or more and less than 10 is denoted as B)”. Besides, the “HRAS/KRAS (ratio of KD value with respect to GDP-bound HRAS wild-type protein to KD value with respect to KRAS)” value in experiment [2] was “B (a compound having 3 or more and less than 10 is denoted as B)”.
